In patent US8536216B2, “Compositions based on aminoacids” (Professional Dietetics S.R.L., priority 2000, dated 2013):
Where two headings read alike, the source gives them in different places.

What was measured:
[1] = human, in vivo
[2] = tested on: athletes; experiment: Comparative study in athletes: bench press, squat Romano, maximal power on braked bicycle ergometer; type: in vivo, human
Text: The effects on energy balance of the an amino acids mixture according to the invention as above indicated were the subject of a comparative study with creatine, on a weight ratio (w/w), or with no treatment, on a large group of volunteers submitted to a rigid protocol of alimentation and training.

[3] = Amino acids plasma modifications induced by acute ingestion of the mixture
[4] = 15' after acute ingestion of the mixture according to the invention
[5] = 30' after acute ingestion of the mixture according to the invention
[6] = 60' after acute ingestion of the mixture according to the invention

| Compound | Amino acid plasma level ([1]; 15 min) | Amino acid plasma level ([1]; 30 min) | Amino acid plasma level ([1]; 60 min) | Watt/Kg max (maximal power productive performance on a braked bicycle ergometer) ([2]; after one month of treatment and training, mixture 24 g/d, creatine 25 g/d) | Performances over basal and no treatment group ([2]; one month treatment and training) | Amino acid plasma level [3, 4] | Amino acid plasma level [3, 5] | Amino acid plasma level [3, 6] |
| --- | --- | --- | --- | --- | --- | --- | --- | --- |
| C[C@@H](O)[C@H](N)C(=O)O [Threonine] | 121 ± 15 | 137 ± 21 | 120 ± 16 |  |  |  |  |  |
| CN(CC(=O)O)C(=N)N [creatine] |  |  |  | 9.8 ± 0.6 watt/kg max | significant improvements of performances |  |  |  |
| NCCCC[C@H](N)C(=O)O [Lysine] | 182 ± 17 | 194 ± 26 | 179 ± 18 |  |  |  |  |  |
| N[C@@H](Cc1ccc(O)cc1)C(=O)O [Tyrosine] | 62 ± 9 | 65 ± 14 | 59 ± 7 |  |  |  |  |  |
| N[C@@H](CCC(=O)O)C(=O)O [Glutamic acid] |  |  |  |  |  | 42 ± 6 | 44 ± 7 | 41 ± 5 |
| CC(C)[C@H](N)C(=O)O [Valine] | 256 ± 19 | 294 ± 32 | 249 ± 26 |  |  |  |  |  |
| CC[C@H](C)[C@H](N)C(=O)O [Isoleucine] | 156 ± 24 | 162 ± 31 | 147 ± 32 |  |  |  |  |  |
| N[C@@H](Cc1ccccc1)C(=O)O [Phenylalanine] | 56 ± 9 | 61 ± 10 | 55 ± 7 |  |  |  |  |  |
| N=C(N)NCCC[C@H](N)C(=O)O [Arginine] | 85 ± 15 | 97 ± 13 | 82 ± 16 |  |  |  |  |  |
| N[C@@H](CS)C(=O)O [Cysteine] | 54 ± 6 | 61 ± 8 | 49 ± 7 |  |  |  |  |  |
| CC(C)C[C@H](N)C(=O)O [Leucine] | 68 ± 16 | 109 ± 19 | 71 ± 9 |  |  |  |  |  |
| CSCC[C@H](N)C(=O)O [Methionine] | 30 ± 6 | 32 ± 9 | 27 ± 4 |  |  |  |  |  |
| N[C@@H](CCC(=O)O)C(=O)O [Glutamate] |  |  |  |  |  | 563 ± 69 | 606 ± 32 | 502 ± 43 |
